The molecules below were run on PBMCs infected with VSV-G pseudotyped HIV virus (VSV-G/pNLG1-P2A-ΔEnv) (assay: cells). Conditions: Homo sapiens, PBMC, read-out: EC50 (HIV-TACK cell kill activity).
Type: cell-based, human

| SMILES | EC50 |
| --- | --- |
| Cc1cn(Cc2ccc3c(c2)NC(=O)N[C@]3(C#CC2CC2)C(F)(F)F)c(=O)[nH]c1=O [Example 47, (S)-1-((4-(cyclopropylethynyl)-2-oxo-4-(trifluoromethyl)-1,2,3,4-tetrahydroquinazolin-7-yl)methyl)-5-methylpyrimidine-2,4(1H,3H)-dione] | 0.135 µM |
| CC(F)(F)c1ncn(Cc2ccc3c(c2)NC(=O)N[C@]3(C#CC2CC2)C(F)(F)F)c(=O)c1N [Example 81, (S)-7-((5-amino-4-(1,1-difluoroethyl)-6-oxopyrimidin-1(6H)-yl)methyl)-4-(cyclopropylethynyl)-4-(trifluoromethyl)-3,4-dihydroquinazolin-2(1H)-one] | 0.166 µM |
| Cc1cc(=O)n(Cc2ccc3c(c2)NC(=O)N[C@]3(C#CC2CC2)C(C)(F)F)cn1 [Example 64, (S)-4-(cyclopropylethynyl)-4-(1,1-difluoroethyl)-7-((4-methyl-6-oxopyrimidin-1(6H)-yl)methyl)-3,4-dihydroquinazolin-2(1H)-one] | 0.093 µM |
| CN1C(=O)Nc2cc(Cn3ccnc(N)c3=O)c(Cl)cc2C1(C#CC1CC1)C(F)(F)F (single isomer, unassigned) [Example 76] | 0.042 µM |
| O=C1Nc2cc(Cn3cnc(CO)cc3=O)ccc2[C@@](C#CC2CC2)(C(F)(F)F)N1 [Example 63, (S)-4-(cyclopropylethynyl)-7-((4-(hydroxymethyl)-6-oxopyrimidin-1(6H)-yl)methyl)-4-(trifluoromethyl)-3,4-dihydroquinazolin-2(1H)-one] | 0.145 µM |
| Nc1cncn(Cc2cc3c(cc2F)[C@@](C#CC2CC2)(C(F)(F)F)NC(=O)N3)c1=O [Example 5, (S)-7-((5-amino-6-oxopyrimidin-1(6H)-yl)methyl)-4-(cyclopropylethynyl)-6-fluoro-4-(trifluoromethyl)-3,4-dihydroquinazolin-2(1H)-one] | 0.035 µM |
| CC(F)(F)[C@@]1(C#CC2CC2)NC(=O)Nc2cc(Cn3cnccc3=O)ccc21 [Example 55, (S)-4-(cyclopropylethynyl)-4-(1,1-difluoroethyl)-7-((6-oxopyrimidin-1(6H)-yl)methyl)-3,4-dihydroquinazolin-2(1H)-one] | 0.096 µM |
| CN1C(=O)Nc2cc(Cn3cnccc3=O)c(Cl)cc2C1(C#CC1CC1)C(F)(F)F (racemic) [Example 78, (S)-6-chloro-4-(cyclopropylethynyl)-3-methyl-7-((6-oxopyrimidin-1(6H)-yl)methyl)-4-(trifluoromethyl)-3,4-dihydroquinazolin-2(1H)-one AND (R)-6-chloro-4-(cyclopropylethynyl)-3-methyl-7-((6-oxopyrimidin-1(6H)-yl)methyl)-4-(trifluoromethyl)-3,4-dihydroquinazolin-2(1H)-one] | 0.038 µM |
| O=C1Nc2cc(Cn3cnc(C(F)F)cc3=O)c(Cl)cc2[C@@](C#CC2CC2)(C(F)(F)F)N1 [Example 62, (S)-6-chloro-4-(cyclopropylethynyl)-7-((4-(difluoromethyl)-6-oxopyrimidin-1(6H)-yl)methyl)-4-(trifluoromethyl)-3,4-dihydroquinazolin-2(1H)-one] | 0.041 µM |
| COc1ccc(=O)n(Cc2cc3c(cc2F)[C@@](C#CC2CC2)(C(C)(F)F)NC(=O)N3)n1 [Example 82, (S)-4-(cyclopropylethynyl)-4-(1,1-difluoroethyl)-6-fluoro-7-((3-methoxy-6-oxopyridazin-1(6H)-yl)methyl)-3,4-dihydroquinazolin-2(1H)-one] | 0.066 µM |
| O=C1Nc2cc(Cn3cnc(C(F)F)cc3=O)ccc2[C@@](C#CC2CC2)(C(F)(F)F)N1 [Example 36, (S)-4-(cyclopropylethynyl)-7-((4-(difluoromethyl)-6-oxopyrimidin-1(6H)-yl)methyl)-4-(trifluoromethyl)-3,4-dihydroquinazolin-2(1H)-one] | 0.101 µM |
| Nc1cc(=O)n(Cc2cc3c(cc2Cl)[C@@](C#CC2CC2)(C(F)(F)F)NC(=O)N3)cn1 [Example 13, (S)-7-((4-amino-6-oxopyrimidin-1(6H)-yl)methyl)-6-chloro-4-(cyclopropylethynyl)-4-(trifluoromethyl)-3,4-dihydroquinazolin-2(1H)-one] | 0.046 µM |
| COCc1cc(=O)n(Cc2cc3c(cc2Cl)[C@@](C#CC2CC2)(C(C)(F)F)NC(=O)N3)cn1 [Example 19, (S)-6-chloro-4-(cyclopropylethynyl)-4-(1,1-difluoroethyl)-7-((4-(methoxymethyl)-6-oxopyrimidin-1(6H)-yl)methyl)-3,4-dihydroquinazolin-2(1H)-one] | 0.014 µM |
| O=C1Nc2cc(Cn3cncc(CO)c3=O)c(F)cc2[C@@](C#CC2CC2)(C(F)(F)F)N1 [Example 66, (S)-4-(cyclopropylethynyl)-6-fluoro-7-((5-(hydroxymethyl)-6-oxopyrimidin-1(6H)-yl)methyl)-4-(trifluoromethyl)-3,4-dihydroquinazolin-2(1H)-one] | 0.188 µM |
| Nc1nccn(Cc2cc3c(cc2Br)[C@@](C#CC2CC2)(C(F)(F)F)NC(=O)N3)c1=O [Example 45, (S)-7-((3-amino-2-oxopyrazin-1(2H)-yl)methyl)-6-bromo-4-(cyclopropylethynyl)-4-(trifluoromethyl)-3,4-dihydroquinazolin-2(1H)-one] | 0.05 µM |
| O=C1Nc2cc(Cn3cnc(C(F)(F)F)cc3=O)c(Cl)cc2[C@@](C#CC2CC2)(C(F)(F)F)N1 [Example 42, (S)-6-chloro-4-(cyclopropylethynyl)-7-((6-oxo-4-(trifluoromethyl)pyrimidin-1(6H)-yl)methyl)-4-(trifluoromethyl)-3,4-dihydroquinazolin-2(1H)-one] | 0.052 µM |
| O=C1Nc2c(cc(F)c(Cn3cnccc3=O)c2F)[C@@](C#CC2CC2)(C(F)(F)F)N1 [Example 49, (S)-4-(cyclopropylethynyl)-6,8-difluoro-7-((6-oxopyrimidin-1(6H)-yl)methyl)-4-(trifluoromethyl)-3,4-dihydroquinazolin-2(1H)-one] | 0.096 µM |
| Nc1nccn(Cc2cc3c(cc2Cl)[C@@](C#CC2CC2)(C(F)(F)F)NC(=O)N3)c1=O [Example 58, (S)-7-((3-amino-2-oxopyrazin-1(2H)-yl)methyl)-6-chloro-4-(cyclopropylethynyl)-4-(trifluoromethyl)-3,4-dihydroquinazolin-2(1H)-one] | 0.041 µM |
| Cc1cnc(N)c(=O)n1Cc1ccc2c(c1)NC(=O)N[C@]2(C#CC1CC1)C(F)(F)F [Example 30, (S)-7-((3-amino-6-methyl-2-oxopyrazin-1(2H)-yl)methyl)-4-(cyclopropylethynyl)-4-(trifluoromethyl)-3,4-dihydroquinazolin-2(1H)-one] | 0.152 µM |
| Nc1c(C(F)(F)F)ccn(Cc2ccc3c(c2)NC(=O)N[C@]3(C#CC2CC2)C(F)(F)F)c1=O [Example 72, (S)-7-((3-amino-2-oxo-4-(trifluoromethyl)pyridin-1(2H)-yl)methyl)-4-(cyclopropylethynyl)-4-(trifluoromethyl)-3,4-dihydroquinazolin-2(1H)-one] | 0.193 µM |
| COc1cnn(Cc2cc3c(cc2F)[C@@](C#CC2CC2)(C(C)(F)F)NC(=O)N3)c(=O)c1 [Example 83, (S)-4-(cyclopropylethynyl)-4-(1,1-difluoroethyl)-6-fluoro-7-((4-methoxy-6-oxopyridazin-1(6H)-yl)methyl)-3,4-dihydroquinazolin-2(1H)-one] | 0.051 µM |

— patent US12558357B2, “Tetrahydroquinazoline derivatives as selective cytotoxic agents” (Merck Sharp & Dohme LLC, priority 2020, dated 2026)
